Results taken from patent publication EP4588921A1, “FREE BASE CRYSTAL FORM OF POLYCYCLIC COMPOUND OF NITROGEN-CONTAINING HETEROCYCLE, AND PREPARATION METHOD THEREFOR” (Jiangsu Hansoh Pharmaceutical Group Co., Ltd., priority 2022, dated 2024).
≈ marks a conversion by molar mass, not a printed value. Where two headings read alike, the source gives them in different places.

How the values were obtained:
[1] = Solid stability experiment (related substances by HPLC); type: physicochemical
Description: The compound physical and chemical stability at high temperature of 60°C, high humidity of 92.5% RH and both high temperature of 50°C and high humidity of 75% RH of the free base crystal form I and the free base crystal form II were investigated to provide a basis for the storage of the compounds.
About 2 mg of the free base crystal form I and the free base crystal form II were taken respectively, and changes of related substances in the crystal forms at high temperature of 60°C, high humidity of 92.5% RH, and both high temperature of 50°C and high humidity of 75%RH for 7 days and 14 days were investigated. The changes of related substances were calculated by HPLC and the chromatographic peak area normalization method.

[2] = Solubility experiments in different media (thermodynamic solubility); type: physicochemical; conditions: thermodynamic from solid
Excerpt: The solubility of the free base crystal form I and the free base crystal form II in media such as pH 1.0-8.0 USP buffer, artificial simulated gastric fluid (FaSSGF), fasted-state artificial simulated intestinal fluid (FaSSIF), fed-state artificial simulated intestinal fluid (FeSSIF) and pure water was compared to provide a basis for the evaluation of drugability.

[3] = Hygroscopicity experiment; type: physicochemical
Description: The hygroscopicity of the crystal form I and the crystal form II of compound 9 were investigated under different relative humidity to provide a basis for the storage of the compounds.
The crystal form I and the crystal form II of compound 9 were placed in saturated water vapor at different relative humidities to allow the compound to reach a dynamic equilibrium with the water vapor, and the percentage of weight gain after moisture absorption of the compound after equilibrium was calculated.

[4] = PK studies in animals of the free base crystal forms; type: in vivo; conditions: SD rats, plasma; for MRT inf: read-out: MRT 0-∞
Description: The pharmacokinetic of the free base crystal form after a single intravenous administration was studied, and the bioavailability of the free base crystal form I and the free base crystal form II after oral administration were calculated.
The free base crystal form I was suspended with 0.5% CMCC-Na aqueous solution, and the free base crystal form […] aqueous solution. After uniformity, the suspensions were administered intragastrically to rats in triplicate at a dosage of 5 mg/kg (30 mg/kg for suspension) for the free base crystal form I and a dosage of 30 mg/kg (suspension) for the free base crystal form II. The free base crystal form I was dissolved with 20% HP-β-CD aqueous solution to obtain a clear solution, and the clear solution was filtered through a filter membrane. The filtered solution was administered via injection to rats in triplicate.

[5] = Room temperature, 92.5%RH, 7 days
[6] = Room temperature, 92.5%RH, 14 days
[7] = Sprague-Dawley (SD), rat, 2 mg/kg, IV, 2MPK, 20%HP-B-CD solution
[8] = Sprague-Dawley (SD), rat, iv, 2 mg/kg, 2MPK, 20%HP-B-CD solution
[9] = Sprague-Dawley (SD), rat, po, 5 mg/kg, 5MPK, 0.5%CMC-Na
[10] = Sprague-Dawley (SD), rat, po, 30 mg/kg, 30MPK, 0.5%CMC-Na suspension

## CC(C)(O)c1nc(N2C[C@H]3CN(C(=O)c4c(F)cccc4-c4ncccn4)C[C@H]3C2)ncc1F [free base crystal form I, ((3aR,6aS)-5-(5-fluoro-4-(2-hydroxyprop-2-yl)pyrimidin-2-yl)hexahydropyrrolo [3,4-c]pyrrol-2(1H)-yl)(2-fluoro-6-(pyrimidin-2-yl)phenyl)methanone]
[1]; 50°C, 75%RH, 7 days
  % Increase in total impurity: <0.1%
  % Maximum increase in single impurity: <0.1%
[1]; 50°C, 75%RH, 14 days
  % Increase in total impurity: <0.1%
  % Maximum increase in single impurity: <0.1%
[1]; 60°C, 7 days
  % Increase in total impurity: <0.1%
  % Maximum increase in single impurity: <0.1%
[1]; 60°C, 14 days
  % Increase in total impurity: <0.1%
  % Maximum increase in single impurity: <0.1%
[1]; [5]
  % Increase in total impurity: <0.1%
  % Maximum increase in single impurity: <0.1%
[1]; [6]
  % Increase in total impurity: <0.1%
  % Maximum increase in single impurity: <0.1%
[2]; FaSSCoF, 37 °C, fassgf or other biorelevant, FaSSCoF, read-out: Solubility of free base crystal form I
  solubility at 2 h: 118 µg/mL (≈ 253 µM)
[2]; FaSSGF (artificial simulated gastric fluid), 37 °C, fassgf or other biorelevant, FaSSGF, read-out: Solubility of free base crystal form I
  solubility at 2 h: 269 µg/mL (≈ 577 µM)
[2]; FaSSIF, 37 °C, fassif, FaSSIF, read-out: Solubility of free base crystal form I
  solubility at 2 h: 247 µg/mL (≈ 529 µM)
[2]; FeSSCoF, 37 °C, fassgf or other biorelevant, FeSSCoF, read-out: Solubility of free base crystal form I
  solubility at 2 h: 182 µg/mL (≈ 390 µM)
[2]; FeSSIF, 37 °C, fessif, FeSSIF, read-out: Solubility of free base crystal form I
  solubility at 2 h: 311 µg/mL (≈ 667 µM)
[2]; USP buffer pH 1.0, 37 °C, pH 1, simulated gastric fluid, pH 1.0, read-out: Solubility of free base crystal form I
  solubility at 2 h: 799 µg/mL (≈ 1710 µM)
[2]; USP buffer pH 2.0, 37 °C, pH 2, simulated gastric fluid, pH 2.0, read-out: Solubility of free base crystal form I
  solubility at 2 h: 141 µg/mL (≈ 302 µM)
[2]; USP buffer pH 3.0, 37 °C, pH 3, aqueous buffer, pH 3.0, read-out: Solubility of free base crystal form I
  solubility at 2 h: 87 µg/mL (≈ 186 µM)
[2]; USP buffer pH 4.5, 37 °C, pH 4.5, aqueous buffer, pH 4.5, read-out: Solubility of free base crystal form I
  solubility at 2 h: 80 µg/mL (≈ 171 µM)
[2]; USP buffer pH 6.8, 37 °C, pH 6.8, aqueous buffer, pH 6.8, read-out: Solubility of free base crystal form I
  solubility at 2 h: 81 µg/mL (≈ 174 µM)
[2]; USP buffer, 37 °C, pH 4, aqueous buffer, pH 4.0, read-out: Solubility of free base crystal form I
  solubility at 2 h: 73 µg/mL (≈ 156 µM)
[2]; USP buffer, 37 °C, pH 5, aqueous buffer, pH 5.0, read-out: Solubility of free base crystal form I
  solubility at 2 h: 88 µg/mL (≈ 189 µM)
[2]; USP buffer, 37 °C, pH 6, aqueous buffer, pH 6.0, read-out: Solubility of free base crystal form I
  solubility at 2 h: 70 µg/mL (≈ 150 µM)
[2]; USP buffer, 37 °C, pH 7, aqueous buffer, pH 7.0, read-out: Solubility of free base crystal form I
  solubility at 2 h: 75 µg/mL (≈ 161 µM)
[2]; USP buffer, 37 °C, pH 8, aqueous buffer, pH 8.0, read-out: Solubility of free base crystal form I
  solubility at 2 h: 58 µg/mL (≈ 124 µM)
[2]; water, 37 °C, water, H2O, read-out: Solubility of free base crystal form I
  solubility at 2 h: 91 µg/mL (≈ 195 µM)
[3]; after 2 cycles of moisture absorption and desorption at 0%-95% relative humidity
  change in the XRPD pattern (crystal form transformation): no change in the XRPD pattern
[3]; at 80%RH
  weight gain after moisture absorption: about 0.3263%
[4]; PO, 30MPK, 0.5%CMC-Na suspension
  Tmax: 2.0 h
[4]; [7]
  C0: 2910 ng/mL
  clearance: 15 mL/min/kg
[4]; Sprague-Dawley (SD), rat, 2 mg/kg, IV, 2MPK, 20%HP-B-CD solution, read-out: Vss
  Vd: 0.8 L/kg
[4]; Sprague-Dawley (SD), rat, 5 mg/kg, PO, 5MPK, 0.5%CMC-Na, read-out: tmax
  Tmax: 0.5 h
[4]; [8]
  AUC(0-inf): 2280 ng·h/mL
  AUC(0-t): 2280 ng·h/mL
  half-life: 0.9 h
[4]; Sprague-Dawley (SD), rat, iv, 2 mg/kg, IV, 2MPK, 20%HP-B-CD solution
  MRT inf: 0.9 h
[4]; [9]
  AUC(0-inf): 2410 ng·h/mL
  AUC(0-t): 2390 ng·h/mL
  Cmax: 787 ng/mL
  bioavailability: 7%
  half-life: 1.2 h
[4]; Sprague-Dawley (SD), rat, po, 5 mg/kg, PO, 5MPK, 0.5%CMC-Na
  MRT inf: 2.2 h
[4]; [10]
  AUC(0-inf): 31000 ng·h/mL
  AUC(0-t): 28400 ng·h/mL
  Cmax: 6010 ng/mL
  bioavailability: 90.4%
  half-life: 1.9 h
[4]; Sprague-Dawley (SD), rat, po, 30 mg/kg, PO, 30MPK, 0.5%CMC-Na suspension
  MRT inf: 3.8 h
